Experimental data taken from PMC10861593, “Kisspeptin-10 binding to Gpr54 in osteoclasts prevents bone loss by activating Dusp18-mediated dephosphorylation of Src” (Nature Communications, 2024).
Entries after “also recorded” stand apart in the source; their conditions may differ.

Key:
[1] = system: DUSP18, Src, and GPR54 complex; assay: Co-IP: DUSP18, Src and GPR54 heterotrimer complex formation in transfected 293T cells; assay type: cell-based; conditions: 293T with HA-Src, GPR54-Myc, DUSP18 (C104S)-Flag, Kp-10 20 min
Procedure: Anti-Flag IP derived from 293 T cells transfected with HA-Src and either DUSP18-Flag or DUSP18 (C104S)-Flag constructs with or without Kp-10 treatment for 20 min were lysed and subjected to anti-FLAG IP (b). Phosphatase reaction products using His-DUSP18 and His-DUSP18 (C104S) proteins purified from E. coli and SRC proteins purified from Sf9 insect cells (c) and quantification of protein levels (d). Anti-Src IP derived from RAW264.7 cells treated with or without Kp-10 treatment for 20 min were lysed and subjected to anti-Src IP (e) and quantification of protein levels (f). g, h Src and Dusp18 co-localization was analyzed by IF staining in primary pre-osteoclasts treated with 10 nM Kp-10 treatment for 20 min. Representative images of endogenous Dusp18 and Src were shown by TIRF microscopy (g), and MOC was used to quantify the degree of colocalization in cells from multiple images taken randomly (h). Scale bar, 50 µm. i–m IB and quantification of protein levels analysis. Anti-Flag IP derived from 293 T cells transfected with HA-Src, GPR54-myc, and either DUSP18-Flag or DUSP18 (C104S)-Flag constructs after Kp-10 treatment for 20 min (i) and quantification of protein levels (j, k). […] Scale bars, 125 µm (n), and pits depth were quantified by confocal microscopy (o). […] P values were determined by one-way ANOVA analysis (d, f, j, k, m, o) or by two-tailed Student’s t-test (h). […]

Dusp18 expression = assay: WB of Dusp18 protein expression in RAW264.7 cells; assay type: cell-based, mouse
Text: Anti-Flag IP of lysates derived from 293 T cells transfected with GPR54-flag and Src-HA constructs (d) and quantification results (e). Anti-Flag IP of lysates derived from 293 T cells transfected with GPR54-flag and DUSP18-HA constructs (f) and quantification results (g). Anti-Flag IP of lysates derived from 293 T cells transfected with Src-HA, and DUSP18-flag constructs (h) and quantification results (i). j, k IB analysis of lysates derived from WT BMMs and Gq/11 KO BMMs with or without Kp-10 treatment for 1 h (j) and quantification of results (k). l Working model of Kp-10 /Gpr54 mediated Src dephosphorylation. […] However, both active Src and DUSP18 were recruited by GPR54 through the PR motif in GPR54 CT along with the increase of Kp-10 dose (1, 10 nM). […] Data represent means ± SEM. P values were determined by one-way ANOVA analysis (b, c, e, g, i, k). Representative results were obtained from at least three independent experiments. Source data are provided as a Source Data file.
Whole-cell proteins were extracted using 1x RIPA buffer (25 mM Tris, pH7.5, 150 mM NaCl, 0.5% Sodium deoxycholate, 1% Triton-X-100) supplemented with protease inhibitors (Complete Mini, Roche) and phosphatase inhibitors (phosphatase inhibitor cocktail set I and II, Calbiochem). Immunoprecipitation and immunoblotting with indicated antibodies were performed as described in Supplementary Table 1. Image Jsoftware (V1.52) was used for quantification analysis. Uncropped and unprocessed blots are presented in the Supplementary Information file.
Supplementary Fig. 7 a-b IB and quantification of Dusp18 protein level induced by indicated dose of Kp-10 for 1 hour in RAW264.7 cells (a) and quantification of protein levels (b) or induced by Kp-10 (1nM) for 1 hour in RAW264.7 transfected with ERK1/2 siRNA. Error bars are ± SEM. P-values were determined by one-way ANOVA analysis (b). ****P <0.0001. “ns” means no significant difference. Representative results were observed from at least three independent experiments. Source data are provided as a Source Data file.

[2] = system: osteoclast formation from BMMs; assay: TRAP staining of osteoclast formation from BMMs; assay type: cell-based, mouse

Kisspeptin-10 [Kp-10]
heterotrimer complex formation with DUSP18 (C104S) [1]: but not when the catalytic center of DUSP18 was killed
protein level of Dusp18 upon ERK1/2 siRNA (Dusp18 expression; RAW264.7, ERK1/2 siRNA, Kp-10 (1 nM) 1 h): cannot be obviously up-regulated
expression of Dusp18 (protein), 10 nM (Dusp18 expression; RAW264.7, Kp-10 10 nM for 1 h): not by 10 nM Kp-10
expression of Dusp18 (protein), 0.1 and 1 nM (Dusp18 expression; RAW264.7, Kp-10 0.1, 1 nM for 1 h): obviously upregulated the expression of Dusp18; also recorded: induced the expression of Dusp18 obviously
osteoclast formation ([2]; Arrb1 knockout BMMs): still suppressed by Kp-10; also recorded: still blocked osteoclast formation
osteoclast formation ([2]; Arrb2 knockout BMMs): still suppressed by Kp-10; also recorded: still blocked osteoclast formation
